Test results as given in ChEMBL document CHEMBL1152962 (Bioorg Med Chem, 2009).

Columns and labels:
[1] = Ratio of Trolox IC50 to compound IC50 for ABTS radical scavenging activity
Tyrosinase [2] = molecular target: T1, Tyrosinase (Agaricus bisporus, UniProt O42713)
T1 sequence (O42713 whole entry): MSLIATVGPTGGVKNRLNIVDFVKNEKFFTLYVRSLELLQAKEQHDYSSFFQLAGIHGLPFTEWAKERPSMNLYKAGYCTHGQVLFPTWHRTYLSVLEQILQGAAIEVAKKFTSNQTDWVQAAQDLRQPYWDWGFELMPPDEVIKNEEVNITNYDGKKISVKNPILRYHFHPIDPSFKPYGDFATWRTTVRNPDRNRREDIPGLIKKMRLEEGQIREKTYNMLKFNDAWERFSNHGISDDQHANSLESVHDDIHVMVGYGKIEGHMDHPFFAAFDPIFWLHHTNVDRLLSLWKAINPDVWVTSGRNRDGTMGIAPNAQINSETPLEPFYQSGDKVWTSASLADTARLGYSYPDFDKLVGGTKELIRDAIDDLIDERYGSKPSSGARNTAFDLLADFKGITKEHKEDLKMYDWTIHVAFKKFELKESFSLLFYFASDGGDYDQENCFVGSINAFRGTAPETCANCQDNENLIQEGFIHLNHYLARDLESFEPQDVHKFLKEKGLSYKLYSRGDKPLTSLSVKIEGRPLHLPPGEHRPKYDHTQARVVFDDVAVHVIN
Description: Inhibition of mushroom tyrosinase activity after 30 mins by spectrophotometry

Tyrosinase [3] = molecular target: T1, Tyrosinase; remark: listed apart in the source
Description: Inhibition of mushroom tyrosinase activity after 90 mins by spectrophotometry

Tyrosinase [4] = molecular target: T1, Tyrosinase; remark: listed apart in the source
Description: Inhibition of mushroom tyrosinase activity after 150 mins by spectrophotometry

[5] = tested on: Radical scavenging activity
Description: Antioxidant activity assessed as DPPH radical scavenging activity incubated at 40 degC in dark after 30 mins

[6] = Ratio of Trolox IC50 to compound IC50 for FeCl2-induced lipid peroxidation; assay type: physicochemical
[7] = Ratio of Trolox IC50 to compound IC50 for DPPH radical scavenging activity

Structure (SMILES) | IC50 (Tyrosinase [2]) | IC50 (Tyrosinase [3]) | IC50 (Tyrosinase [4]) | IC50 [5] | Ratio IC50 [1] | Ratio IC50 [6] | Ratio IC50 [7]
COc1ccc(CC(=O)c2ccc(O)cc2O)cc1 [ONONETIN] | 78.9 µM | 160 µM | 181 µM | 57.4 µM | – | – | –
COc1ccc(CC(=O)c2c(O)cc(O)cc2O)cc1 | 71 µM | 214 µM | 230 µM | 10.8 µM | – | – | –
COc1cc(O)c(C(=O)Cc2ccccc2)cc1O | – | – | – | 20.3 µM | – | – | –
O=C(Cc1ccccc1)c1c(O)cc(O)cc1O | – | – | – | 12.2 µM | – | – | –
COc1ccc(CC(=O)c2cc(O)c(C)c(C)c2O)cc1 | – | – | – | 21.9 µM | – | – | –
O=C1O[C@H]([C@@H](O)CO)C(O)=C1O [ASCORBIC ACID] | – | – | – | 73.7 µM | – | – | –
COc1ccc(CC(=O)c2cc(O)c(O)cc2O)cc1 | 84.4 µM | 144 µM | 197 µM | 21.5 µM | – | – | –
COc1ccc(CC(=O)c2ccc(O)c(O)c2)cc1 | > 300 µM | 168 µM | 178 µM | 75.9 µM | – | – | –
O=C(Cc1ccc(O)cc1)c1c(O)cc(O)cc1O | > 300 µM | > 300 µM | 261 µM | 22.8 µM | – | – | –
COc1ccc(CC(=O)c2ccc(O)cc2O)cc1OC | 112 µM | 209 µM | 240 µM | 35.1 µM | – | – | –
O=C(Cc1ccc(O)cc1)c1ccc(O)cc1O | 178 µM | 136 µM | 172 µM | 25.2 µM | – | – | –
COc1ccc(CC(=O)c2ccc(O)c(O)c2O)cc1 | > 300 µM | 203 µM | 212 µM | 21.6 µM | – | – | –
COc1ccc(C(=O)Cc2ccc(O)cc2)c(O)c1O | 43.4 µM | 43.1 µM | 46.1 µM | 25.7 µM | – | – | –

Now those with a lower IC50 [5], led by results:

IC50 (Tyrosinase [2]) | IC50 (Tyrosinase [3]) | IC50 (Tyrosinase [4]) | IC50 [5] | Structure (SMILES) | Ratio IC50 [1] | Ratio IC50 [6] | Ratio IC50 [7]
> 300 µM | > 300 µM | > 500 µM | 5.69 µM | O=C(Cc1ccc(O)cc1)c1ccc(O)c(O)c1O | 10 | – | –
– | – | – | 1.35 µM | COc1ccc(CC(=O)c2c(O)cc(O)cc2O)cc1OC | – | – | –
– | – | – | 2.53 µM | COc1ccc(CC(=O)c2ccc(O)c(O)c2)cc1OC | – | – | –
229 µM | 132 µM | 140 µM | 4.34 µM | COc1ccc(CC(=O)c2ccc(O)c(O)c2O)cc1OC | – | 5 | –
– | – | – | 0.69 µM | O=C(Cc1ccc(O)cc1)c1cc(O)c(O)cc1O | – | – | 13
– | – | – | 9.2 µM | Cc1c(C)c2c(c(C)c1O)CCC(C)(C(=O)O)O2 (stereo not given) [TROLOX] | – | – | –
